Assay results reported in patent publication EP4782453A1 (Beyang Therapeutics Co., Ltd., priority 2023, dated 2025).

Tests used:
MEIS1 gene expression = test: Inhibition of MEIS1 gene expression in human tumor cells (qRT-PCR), MOLM-13; type: cell-based; details: MOLM-13 (carrying MLL-AF9), 48 hours of incubation, relative MEIS1 gene expression vs GAPDH
Excerpt: Experimental Example 3: Evaluation of Inhibitory Activity of Compounds Against MEISI Gene Expression in Human Tumor Cells
The effect of test samples on MEIS1 gene expression in vitro cultured human leukemia cells MV-4-11 (carrying MLL-AF4), MOLM-13 (carrying MLL-AF9), and OCI-AML3 (carrying NPM1c) was studied.
• Human acute lymphoblastic leukemia cells MV-4-11, purchased from American Type Culture Collection, Catalog Number: CRL-9591; • Human acute myeloid leukemia cells MOLM-13, purchased from COBIOER BIOSCIENCES CO., LTD, Catalog Number: CBP60678; • Human acute myeloid leukemia cells OCI-AML3, purchased from COBIOER BIOSCIENCES CO., LTD, Catalog Number: CBP60817; • MEIS1 Primer/Probe, purchased from IDT, Catalog Number: 40831613; and • GAPDH Primer/Probe, purchased from IDT, Catalog Number: 22214836.
MV-4-11 cells were cultured in an IMDM medium containing 10% fetal bovine serum, or MOLM-13 and OCI-AML3 cells were cultured in an RPMI-1640 medium containing 20% fetal bovine serum, each supplemented with 100 U·mL^-1 penicillin and 100 µg·mL^-1 streptomycin. These cells were cultured at 37°C with 5% CO2. The suspensions of individual cell lines were prepared in their respective media and seeded into 48-well plates at a density of 100,000 cells/well. On the day of the experiment, a compound stock solution was diluted in a 6-fold gradient using DMSO. Each gradient-diluted stock solution was then further diluted 250-fold with a complete medium to prepare a series of working solutions at different concentrations. Next, 250 µL of working solution (containing the complete medium with a 2-fold serial concentration of the test compound or a positive control compound, or containing a control complete medium) was added to each well. After 48 hours of incubation, cells from the 48-well plate were collected into 1 mL centrifuge tubes, centrifuged at 1000 rpm for 5 minutes, and the complete medium was removed. Cells were washed twice with 1 mL PBS and centrifuged to remove PBS. Total RNA was extracted using the RNeasy Mini Kit (250) (QIAGEN, 74106). The threshold cycle (Ct) value for gene expression was determined using the HiScript II U+ One Step qRT-PCR Probe Kit (Vazyme) (Vazyme, Q223-01), with 3 replicates per sample. The prepared reaction mixture was placed in an ABI 7500 real-time PCR instrument, and the reaction proceeded following the procedures below. [formula]
Next, for the relative MEIS1 gene expression, the concentration (EC50) that inhibits 50% of relative MEIS1 gene expression was calculated using GraphPad Prism 8 software.

[1] = tested on: MV-4-11 (carrying MLL-AF4); test: Inhibition of proliferation of human tumor cells (Alamar Blue, 7 days), MV-4-11; type: cell-based; details: Homo sapiens, MV4-11, 168 h, MV-4-11 cells (carrying MLL-AF4), method calls the value GI50
Summary of the method: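 Alamar Blue fluorescence at Day 7, normalised between 0.1% DMSO wells on Day 7 (high) and Day 0 (low), gives GI50. Cells grew with compound at 37°C, 5% CO2; seeding 4,000 cells/well for MV-4-11 and MOLM-13, 3,000 for KG-1a.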

Row | EC50 (MEIS1 gene expression) [nM] | IC50 [1] [nM] | SMILES
1 | 15 | 17 | CC(=O)N1CCC([C@H](C)N2CC(c3cc(-c4ccc(F)cc4C(=O)N4CCOC[C@H]4C)c4c(F)nc(C)n4c3)C2)CC1 [Example 257-2, 1-{4-[(1S)-1-[3-(1-fluoro-8-{4-fluoro-2-[(3R)-3-methylmorpholin-4-carbonyl]phenyl}-3-methylimidazo[1,5-a]pyridin-6-yl)azacyclobutan-1-yl]ethyl]piperidin-1-yl}ethan-1-one]
2 | 23 | 6.9 | CC[C@@H](C1CCN(C(C)=O)CC1)N1CC(c2cc(-c3ccc(F)cc3C(=O)N3CCOC[C@H]3C)c3c(F)nc(C)n3c2)C1 [Example 280-1, 1-{4-[(1S)-1-[3-(1-fluoro-8-{4-fluoro-2-[(3R)-3-methylmorpholin-4-carbonyl]phenyl}-3-methylimidazo[1,5-a]pyridin-6-yl)azacyclobutan-1-yl]propyl]piperidin-1-yl}ethan-1-one]
3 | 5.9 | 1.5 | CCN(C(=O)c1cc(F)ccc1-c1cc(C2CN([C@@H](C)C3CCN(C(=O)CO)CC3)C2)cn2c(C)nc(F)c12)C(C)C [Example 284-2]
4 | 12 | 12 | Cc1nc(F)c2c(-c3ccc(F)cc3C(=O)N3CCOC[C@H]3C)cc(C3CN([C@H](CO[C@@H]4CCCN(C)C4)C(C)C)C3)cn12 [Example 297-1, (3R)-4-[5-fluoro-2-(1-fluoro-3-methyl-6-{1-[(2S)-3-methyl-1-{[(3R)-1-methylpiperidin-3-yl]oxy}butan-2-yl]azacyclobutan-3-yl}imidazo[1,5-a]pyridin-8yl)benzoyl]-3-methylmorpholine]
5 | 6.5 | 0.97 | CCN(C(=O)c1cc(F)ccc1-c1cc(C2CN([C@H](CCCN3CCN(C)CC3)C(C)C)C2)cn2c(C)ncc12)C(C)C [Example 310-2, N-ethyl-5-fluoro-2-(3-methyl-6-{1-[(3R)-2-methyl-6-(4-methylpiperazin-1-yl)hexan-3-yl]azacyclobutan-3-yl}imidazo[1,5-a]pyridin-8-yl)-N-(isopropyl)benzamide]
6 | 11 | 4.7 | CCN(C(=O)c1cc(F)ccc1-c1cc(C2CN([C@H](CCCN3CCN(C(C)=O)CC3)C(C)C)C2)cn2c(C)ncc12)C(C)C [Example 311-2, 2-(6-{1-[(3R)-6-(4-acetylpiperazin-1-yl)-2-methylhexan-3-yl]azacyclobutan-3-yl}-3-methylimidazo[1,5-a]pyridin-8-yl)-N-ethyl-5-fluoro-N-(isopropyl)benzamide]
7 | 2.5 | 0.91 | CCN(C(=O)c1cc(F)ccc1-c1cc(C2CN([C@H](CCCN3CCN(C)CC3)C(C)C)C2)cn2c(C)nc(F)c12)C(C)C [Example 312-2]
8 | 10 | 2.6 | Cc1nc(F)c2c(-c3ccc(F)cc3C(=O)N3CCOC[C@H]3C)cc(C3CN([C@H](CO[C@H]4CCCN(C)C4)C(C)C)C3)cn12 [Example 321-2, (3R)-4-[5-fluoro-2-(1-fluoro-3-methyl-6-{1-[(2S)-3-methyl-1-{[(3S)-1-methylpiperidin-3-yl]oxy}butan-2-yl]azacyclobutan-3-yl}imidazo[1,5-a]pyridin-8yl)benzoyl]-3-methylmorpholine]

Second part, the compound before the results:

Row | SMILES | EC50 (MEIS1 gene expression) [nM] | IC50 [1] [nM]
9 | CCS(=O)(=O)N[C@H]1CC[C@H](CN2CC(c3cc(-c4ccc(F)cc4C(=O)N4CCOC[C@H]4C)c4cnc(C)n4c3)C2)CC1 [Example 134, N-[(1r,4r)-4-{[3-(8-{4-fluoro-2-[(3R)-3-methylmorpholin-4-carbonyl]phenyl}-3-methylimidazo[1,5-a]pyridin-6-yl)azacyclobutan-1-yl]methyl}cyclohexyl]ethan-1-sulfonamide] | 53 | 26
10 | CCN(C(=O)c1cc(F)ccc1-c1cc(C2CN(C[C@H]3CC[C@H](NS(=O)(=O)CC)CC3)C2)cn2c(C)nc(F)c12)C(C)C [Example 137] | 9 | 4.7
11 | CCS(=O)(=O)N[C@H]1CC[C@H](CN2CC(c3cc(-c4ccc(F)cc4C(=O)N(CC(F)F)C(C)C)c4cnc(C)n4c3)C2)CC1 [Example 138] | 8 | 3
12 | COCCN(C)CCCC(C(C)C)N1CC(c2cc(-c3ccc(F)cc3C(=O)N(CC(F)F)C(C)C)c3c(F)nc(C)n3c2)C1 (stereo not drawn) [Example 142, N-(2,2-difluoroethyl)-5-fluoro-2-[1-fluoro-6-(1-{6-[(2-methoxyethyl)(methyl)amino]-2-methylhexan-3-yl}azacyclobutan-3-yl)-3-methylimidazo[1,5-a]pyridin-8-yl]-N-(isopropyl)benzamide] | 2.3 | 2.2
13 | COCCN(C)CCC[C@H](C(C)C)N1CC(c2cc(-c3ccc(F)cc3C(=O)N3CCOC[C@H]3C)c3c(F)nc(C)n3c2)C1 [Example 200-1] | 1 | 3.2
14 | COC1CCN(CCCC(C(C)C)N2CC(c3cc(-c4ccc(F)cc4C(=O)N4CCOCC4C)c4c(F)nc(C)n4c3)C2)C1 (stereo not drawn) [Example 201-1] | 1 | 2.4
15 | COC1CCN(CCC[C@H](C(C)C)N2CC(c3cc(-c4ccc(F)cc4C(=O)N4CCOC[C@H]4C)c4c(F)nc(C)n4c3)C2)CC1 [Example 204, (3R)-4-[5-fluoro-2-(1-fluoro-6-{1-[(3R)-6-(4-methoxypiperidin-1-yl)-2-methylhexan-3-yl]azacyclobutan-3-yl}-3-methylimidazo[1,5-a]pyridin-8-yl)benzoyl]-3-methylmorpholine] | 4.3 | 2.8
16 | CC(=O)N1CCN(CCC[C@H](C(C)C)N2CC(c3cc(-c4ccc(F)cc4C(=O)N4CCOC[C@H]4C)c4c(F)nc(C)n4c3)C2)CC1 [Example 265] | 38 | 8.6
17 | Cc1nc(F)c2c(-c3ccc(F)cc3C(=O)N3CCOC[C@H]3C)cc(C3CN([C@H](CCCN4CCN(C)CC4)C(C)C)C3)cn12 [Example 275, (3R)-4-[5-fluoro-2-(1-fluoro-3-methyl-6-{1-[(3R)-2-methyl-6-(4-methylpiperazin-1-yl)hexan-3-yl]azacyclobutan-3-yl}imidazo[1,5-a]pyridin-8-yl)benzoyl]-3-methylmorpholine] | 7.7 | 2.6
18 | CCN1CCN(CCC[C@H](C(C)C)N2CC(c3cc(-c4ccc(F)cc4C(=O)N4CCOC[C@H]4C)c4c(F)nc(C)n4c3)C2)CC1 [Example 277] | 3.3 | 1.6
19 | Cc1nc(F)c2c(-c3ccc(F)cc3C(=O)N3CCOC[C@H]3C)cc(C3CN([C@H](CCCN4CCC[C@H](O)C4)C(C)C)C3)cn12 [Example 293] | 9.1 | 2
20 | Cc1nc(F)c2c(-c3ccc(F)cc3C(=O)N3CCOC[C@H]3C)cc(C3CN([C@H](CCCN4CCC(F)CC4)C(C)C)C3)cn12 [Example 314] | 3.4 | 1.1
21 | Cc1nc(F)c2c(-c3ccc(F)cc3C(=O)N3CCOC[C@H]3C)cc(C3CN([C@H](CCCN4CCN(C5CC5)CC4)C(C)C)C3)cn12 [Example 350] | 4 | –
22 | Cc1nc(F)c2c(-c3ccc(F)cc3C(=O)N3CCOC[C@H]3C)cc(C3CN(C(CC[C@@H]4COCCN4)C(C)C)C3)cn12 (stereo partly drawn) [Example 371, (3R)-4-{5-fluoro-2-[1-fluoro-3-methyl-6-(1-{4-methyl-1-[(3R)-morpholin-3-yl]pentan-3-yl}azacyclobutan-3-yl)imidazo[1,5-a]pyridin-8-yl]benzoyl}-3-methylmorpholine] | 1.1 | –
